Reference: patent US12359238B2 (priority 2017, dated 2025)

Test system: all wired variants (GDH-S247PDAz, FGM-S247PDAz, FGM-T558PDAz, FGM-S247PCA)
Conditions: read-out: KM^app of all samples (electrochemical); glucose; range over all wired variants; 300 mV vs. Ag/AgCl

Molecule OC[C@H]1OC(O)[C@H](O)[C@@H](O)[C@@H]1O (stereo partly shown) [glucose] has a Km of 1550 to 1890 µM.
